{
  "source": "patent US8846935B2",
  "about": "“Indazoles” (GlaxoSmithKline LLC, priority 2010, dated 2014)",
  "note": "Counter-ions that a name gives are not always drawn.",
  "data": [
    {"biological_target": "T1, EZH2 within the PRC2 complex (Homo sapiens, UniProt Q15910)", "T1 construct": "FLAG; made in house; host or cells: Sf9 cells", "T1 sequence (Q15910 whole entry)": "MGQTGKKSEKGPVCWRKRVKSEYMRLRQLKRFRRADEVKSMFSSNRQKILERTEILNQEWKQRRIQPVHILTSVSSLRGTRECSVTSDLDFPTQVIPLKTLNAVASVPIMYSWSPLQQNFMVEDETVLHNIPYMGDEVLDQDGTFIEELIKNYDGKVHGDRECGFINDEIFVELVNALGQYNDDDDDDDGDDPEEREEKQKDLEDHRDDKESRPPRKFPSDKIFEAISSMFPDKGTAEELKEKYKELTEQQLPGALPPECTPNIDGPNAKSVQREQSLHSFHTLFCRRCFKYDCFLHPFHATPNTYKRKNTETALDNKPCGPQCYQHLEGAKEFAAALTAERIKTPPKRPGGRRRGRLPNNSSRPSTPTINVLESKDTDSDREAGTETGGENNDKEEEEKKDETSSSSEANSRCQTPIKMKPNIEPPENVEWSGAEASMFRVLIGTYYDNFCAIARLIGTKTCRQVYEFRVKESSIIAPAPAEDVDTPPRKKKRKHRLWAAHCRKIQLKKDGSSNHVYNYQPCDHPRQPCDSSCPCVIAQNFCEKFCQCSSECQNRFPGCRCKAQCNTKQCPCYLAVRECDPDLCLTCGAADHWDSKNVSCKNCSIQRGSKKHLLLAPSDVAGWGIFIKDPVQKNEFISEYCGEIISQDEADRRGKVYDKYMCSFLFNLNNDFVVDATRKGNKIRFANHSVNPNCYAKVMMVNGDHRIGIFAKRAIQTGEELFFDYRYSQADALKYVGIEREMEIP", "T1 sequence (O75530 whole entry partner)": "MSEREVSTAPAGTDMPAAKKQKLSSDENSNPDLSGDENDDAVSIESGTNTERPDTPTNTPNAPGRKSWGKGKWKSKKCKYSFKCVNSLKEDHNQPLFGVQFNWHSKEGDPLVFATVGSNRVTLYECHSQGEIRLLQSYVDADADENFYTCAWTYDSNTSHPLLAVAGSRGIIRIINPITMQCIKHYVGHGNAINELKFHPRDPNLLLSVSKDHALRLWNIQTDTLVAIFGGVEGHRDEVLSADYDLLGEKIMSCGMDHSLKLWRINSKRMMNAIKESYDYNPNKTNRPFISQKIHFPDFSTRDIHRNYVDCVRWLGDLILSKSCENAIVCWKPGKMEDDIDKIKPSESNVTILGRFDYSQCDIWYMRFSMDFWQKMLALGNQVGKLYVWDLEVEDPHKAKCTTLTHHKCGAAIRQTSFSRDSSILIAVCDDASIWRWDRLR", "T1 sequence (Q15022 whole entry partner)": "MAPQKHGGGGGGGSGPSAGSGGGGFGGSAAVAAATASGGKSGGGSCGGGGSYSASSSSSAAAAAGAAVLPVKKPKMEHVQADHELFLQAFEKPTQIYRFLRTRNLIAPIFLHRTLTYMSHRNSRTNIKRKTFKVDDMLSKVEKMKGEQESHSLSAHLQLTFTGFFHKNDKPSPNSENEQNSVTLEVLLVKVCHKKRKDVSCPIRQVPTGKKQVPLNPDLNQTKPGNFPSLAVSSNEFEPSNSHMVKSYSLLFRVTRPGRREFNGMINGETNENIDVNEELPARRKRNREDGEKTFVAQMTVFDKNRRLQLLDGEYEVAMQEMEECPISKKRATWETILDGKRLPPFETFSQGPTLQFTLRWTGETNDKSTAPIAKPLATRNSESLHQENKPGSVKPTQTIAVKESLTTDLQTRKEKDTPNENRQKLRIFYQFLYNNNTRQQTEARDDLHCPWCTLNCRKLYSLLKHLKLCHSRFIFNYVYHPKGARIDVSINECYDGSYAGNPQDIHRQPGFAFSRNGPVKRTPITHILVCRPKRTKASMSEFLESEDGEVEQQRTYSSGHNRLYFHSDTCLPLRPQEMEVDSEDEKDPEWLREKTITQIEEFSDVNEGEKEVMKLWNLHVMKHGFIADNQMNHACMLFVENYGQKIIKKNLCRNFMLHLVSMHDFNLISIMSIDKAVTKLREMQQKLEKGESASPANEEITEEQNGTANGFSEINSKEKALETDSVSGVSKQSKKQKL", "T1 sequence (Q09028 whole entry partner)": "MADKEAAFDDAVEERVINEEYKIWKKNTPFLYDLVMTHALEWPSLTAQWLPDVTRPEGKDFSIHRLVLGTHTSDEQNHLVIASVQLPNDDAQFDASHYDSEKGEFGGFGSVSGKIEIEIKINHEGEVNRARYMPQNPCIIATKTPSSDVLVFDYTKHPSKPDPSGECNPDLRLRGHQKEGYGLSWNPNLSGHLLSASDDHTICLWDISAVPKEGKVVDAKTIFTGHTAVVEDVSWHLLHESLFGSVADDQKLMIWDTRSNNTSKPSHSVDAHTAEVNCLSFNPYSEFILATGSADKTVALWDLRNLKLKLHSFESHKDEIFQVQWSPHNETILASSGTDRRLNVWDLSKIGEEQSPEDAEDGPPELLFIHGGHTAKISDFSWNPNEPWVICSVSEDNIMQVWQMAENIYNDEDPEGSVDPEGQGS", "T1 sequence (Q6ZN18 whole entry partner)": "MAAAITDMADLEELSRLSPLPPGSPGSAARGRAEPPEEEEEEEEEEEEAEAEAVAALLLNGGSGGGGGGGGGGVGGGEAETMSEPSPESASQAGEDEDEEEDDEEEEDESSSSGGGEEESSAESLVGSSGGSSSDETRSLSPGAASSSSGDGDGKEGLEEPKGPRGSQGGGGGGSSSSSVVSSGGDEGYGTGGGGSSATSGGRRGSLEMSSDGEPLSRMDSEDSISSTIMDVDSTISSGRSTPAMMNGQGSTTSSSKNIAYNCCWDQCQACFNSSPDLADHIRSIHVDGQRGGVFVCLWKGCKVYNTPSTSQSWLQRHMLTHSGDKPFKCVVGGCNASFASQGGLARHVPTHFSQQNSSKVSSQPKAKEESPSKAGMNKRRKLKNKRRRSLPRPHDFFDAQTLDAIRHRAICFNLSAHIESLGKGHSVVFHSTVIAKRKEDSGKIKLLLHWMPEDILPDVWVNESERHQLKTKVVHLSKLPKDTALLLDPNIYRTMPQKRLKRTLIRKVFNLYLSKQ", "assay": "EZH2 methyltransferase scintillation proximity assay (SPA)", "assay_type": "biochemical", "conditions": "methyltransferase activity of EZH2 in human PRC2 complex, 3H-SAM, HeLa mononucleosomes", "protocol": "Compounds contained herein were evaluated for their ability to inhibit the methyltransferase activity of EZH2 within the PRC2 complex. Human PRC2 complex was prepared by co-expressing each of the 5 member proteins (FLAG-EZH2, EED, SUZ12, RbAp48, AEBP2) in Sf9 cells followed by co-purification. Enzyme activity was measured in a scintillation proximity assay (SPA) where a tritiated methyl group is transferred from 3H-SAM to a lysine residue on Histone H3 of a mononucleosome, purified from HeLa cells. Mononucleosomes were captured on SPA beads and the resulting signal is read on a ViewLux plate reader.\nPart A. Compound Preparation\n• 1. Prepare 10 mM stock of compounds from solid in 100% DMSO. • 2. Set up an 11-point serial dilution (1:3 dilution, top concentration 10 mM) in 100% DMSO for each test compound in a 384 well plate leaving columns 6 and 18 for DMSO controls. • 3. Dispense 100 nL of compound from the dilution plate into reaction plates (Grenier Bio-One, 384-well, Cat#784075). Part B. Reagent Preparation Prepare the following solutions: • 1. 50 mM Tris-HCl, pH 8: Per 1 L of base buffer, combine 1 M Tris-HCl, pH 8 (50 mL) and distilled water (950 mL). • 2. 1× Assay Buffer: Per 10 mL of 1× Assay Buffer, combine 50 mM Tris-HCl, pH 8 (9958 uL), 1 M MgCl2 (20 uL), 2 M DTT (20 uL), and 10% Tween-20 (2 uL) to provide a final concentration of 50 mM Tris-HCl, pH 8, 2 mM MgCl2, 4 mM DTT, 0.002% Tween-20. • 3. 2× Enzyme Solution: Per 10 mL of 2× Enzyme Solution, combine 1× Assay Buffer and PRC2 complex to provide a final enzyme concentration of 10 nM. • 4. SPA Bead Suspension: Per 1 mL of SPA Bead Suspension, combine PS-PEI coated LEADSeeker beads (40 mg) and ddH2O (1 mL) to provide a final concentration of 40 mg/mL. • 5. 2× Substrate Solution: Per 10 mL of 2× Substrate Solution, combine 1× Assay Buffer (9728.55 uL), 800 ug/mL mononucleosomes (125 uL), 1 mM cold SAM (4 uL), and 7.02 uM 3H-SAM (142.45 uL; 0.55 mCi/mL) to provide a final concentration of 5 ug/mL nucleosomes, 0.2 uM cold SAM, and 0.05 uM 3H-SAM. • 6. 2.67× Quench/Bead Mixture: Per 10 mL of 2.67× Quench/Bead Mixture, combine ddH2O (9358 uL), 10 mM cold SAM (267 uL), 40 mg/mL Bead Suspension (375 uL) to provide a final concentration of 100 uM cold SAM and 0.5 mg/mL SPA beads. Part C. Assay Reaction in 384-well Grenier Bio-One Plates Compound Addition • 1. Dispense […] of 100× Compound to test wells (as noted above). • 2. Dispense […] of 100% DMSO to columns 6 & 18 for high and low controls, respectively. Assay • 1. Dispense 5 uL/well of 1× Assay Buffer to column 18 (low control reactions). • 2. Dispense 5 uL/well of 2× Enzyme Solution to columns 1-17, 19-24. • 3. Spin assay plates for ˜1 minute at 500 rpm. • 4. Stack the assay plates, covering the top plate. • 5. Incubate the compound/DMSO with the enzyme for 30 minutes at room temperature. • 6. Dispense 5 uL/well of 2× Substrate Solution to columns 1-24. • 7. Spin assay plates for ˜1 minute at 500 rpm. • 8. Stack the assay plates, covering the top plate. • 9. Incubate the assay plates at room temperature for 1 hour. Quench/Bead Addition • 1. Dispense 5 uL/well of the 3× Quench/Bead Mixture to columns 1-24. • 2. Seal the top of each assay plate with adhesive TopSeal. • 3. Spin assay plates for ˜1 minute at 500 rpm. • 4. Equilibrate the plates for >20 min. Read Plates • 1. Read the assay plates on the Viewlux Plate Reader utilizing the 613 nm emission filter with a 300 s read time. Reagent addition can be done manually or with automated liquid handler. *The final DMSO concentration in this assay is 1%. *The positive control is in column 6; negative control is in column 18. *Final starting concentration of compounds is 100 μM. Part D. Data Analysis\nPercent inhibition was calculated relative to the DMSO control for each compound concentration and the resulting values were fit using standard IC50 fitting parameters within the ABASE data fitting software package.", "units": {"IC50": "nM"}, "values": [
      {"compound": "CCCc1cc(C)[nH]c(=O)c1CNC(=O)c1cc(-c2ccc(N3CCN(C)CC3)nc2)cc2c1cnn2C(C)C", "note": "[Example 24, 1-(1-methylethyl)-N-[(6-methyl-2-oxo-4-propyl-1,2-dihydro-3-pyridinyl)methyl]-6-[6-(4-methyl-1-piperazinyl)-3-pyridinyl]-1H-indazole-4-carboxamide]", "IC50": 5},
      {"compound": "CCCc1cc(C)[nH]c(=O)c1CNC(=O)c1cc(-c2cccnc2C)cc2c1cnn2C(C)C", "note": "[Example 25, 1-(1-methylethyl)-N-[(6-methyl-2-oxo-4-propyl-1,2-dihydro-3-pyridinyl)methyl]-6-(2-methyl-3-pyridinyl)-1H-indazole-4-carboxamide]", "IC50": 13},
      {"compound": "Cc1cc(C)c(CNC(=O)c2cc(-c3ccc(N(C)C)nc3)cc3c2cnn3C(C)C)c(=O)[nH]1", "note": "[Example 27, 6-[6-(dimethylamino)-3-pyridinyl]-N-[(4,6-dimethyl-2-oxo-1,2-dihydro-3-pyridinyl)methyl]-1-(1-methylethyl)-1H-indazole-4-carboxamide]", "IC50": 32},
      {"compound": "Cc1cc(C)c(CNC(=O)c2cc(-c3cccc(CN(C)C)c3)cc3c2cnn3C(C)C)c(=O)[nH]1", "note": "[Example 29, 6-{3-[(dimethylamino)methyl]phenyl}-N-[(4,6-dimethyl-2-oxo-1,2-dihydro-3-pyridinyl)methyl]-1-(1-methylethyl)-1H-indazole-4-carboxamide]", "IC50": 40},
      {"compound": "CCCc1cc(C)[nH]c(=O)c1CNC(=O)c1cc(-c2ccsc2)cc2c1cnn2C(C)C", "note": "[Example 31, N-((1,2-dihydro-6-methyl-2-oxo-4-propylpyridin-3-yl)methyl)-1-isopropyl-6-(thiophen-3-yl)-1H-indazole-4-carboxamide]", "IC50": 20},
      {"compound": "CCCc1cc(C)[nH]c(=O)c1CNC(=O)c1cc(-c2ccc(CN(C)C)cc2)cc2c1cnn2C(C)C", "note": "[Example 33, 6-{4-[(dimethylamino)methyl]phenyl}-1-(1-methylethyl)-N-[(6-methyl-2-oxo-4-propyl-1,2-dihydro-3-pyridinyl)methyl]-1H-indazole-4-carboxamide hydrochloride salt]", "IC50": 5}
    ]}
  ]
}
